Legend:
[1] = Metallocene-catalyzed oligomerization of 1-decene; conditions: 1-decene 675 g, 110° C., 1 hour, 5 mg metallocene, CTSO, TIBA, hydrogen
Description: Metallocene-catalyzed oligomerizations were performed using MET-A and MET-D as follows. Generally, 1-decene was oligomerized to an oligomer product of dimers, trimers, and tetramers in the presence of MET-A or MET-D, as noted in Table II below. For Examples 8-9, a 1-gallon batch reactor was charged with 675 g of 1-decene. A syringe was charged with CTSO (0.750 g), TIBA (1.3 mL of a 1.0 M hexane solution), and metallocene (5 mg). The chemically treated solid oxide (CTSO) was a fluorided silica-coated alumina (60:40 alumina:silica by weight) containing 4 wt. % F and having a d50 average particle size of 35 microns, a BET surface area of 450 m^2/g, and a pore volume of 1.1 mL/g. The catalyst mixture was shaken to mix and was then charged to the reactor under a nitrogen purge. The reactor was heated to 110° C. while stirring at 600-900 rpm. […]
The reaction mixture was then filtered and analyzed by gas chromatography to determine the yield of oligomer product formed in the reaction mixture, and to determine the relative amount of certain oligomers within the oligomer product (e.g., the trimer:tetramer weight ratio). […]
The distribution of olefin end groups was determined using ^1H NMR on a Bruker 300 MHz NMR. Spectra were recorded in CDCl3 and are reported relative to SiMe4 as determined by reference to the residual ^1H solvent peak. […]

[2] = Solubility of metallocenes in 1-decene; type: physicochemical; conditions: ambient temperature (21° C.), visual inspection for solids or haze
Description: Additional portions of the desired metallocenes were then added in increments of 3-4 mg and the mixture was allowed to stir for 30 minutes after each addition at ambient temperature (21° C.). The resulting mixtures were visually inspected for solids or significant haze. Metallocenes were considered soluble if significant haze or solids were not observed.

[3] = Ethylene/1-hexene polymerization with metallocene catalyst compositions
Description: Polymerization experiments employing catalyst compositions comprising MET-A, MET-B, MET-C, MET-D, MET-E, and MET-F were conducted as follows. Unless otherwise indicated, the polymerization experiments used in the following examples were conducted for […] in a one-gallon (3.8 L) stainless-steel autoclave reactor containing isobutane as diluent. A syringe was charged with 250 mg solid activator-support, 2 mL hexane, 0.5 mL of 1M TIBA (in hexane) and 2.0 mg metallocene (MET-A, MET-B, MET-C, MET-D, MET-E, or MET-F, as noted in Tables III and IV) in that order. The slurry was charged to the reactor under an isobutane purge. The reactor was sealed, charged with 2 L of isobutane, and heated to 80° C. Ethylene was charged to the reactor and fed on demand to maintain the target pressure of 320 psig (2.2 MPa). The reactor was maintained at the target temperature throughout the experiment by an automated heating-cooling system. After venting of the reactor, purging, and cooling, the resulting polymer product was dried under reduced pressure. For Examples 40-41, the polymerization temperature was 90° C., and ethylene pressure was maintained at 390 psig ethylene, with a 1-hexene feed ratio of 20 wt. % vs. ethylene.

Row | SMILES | Activity [1] | Solubility [2] | Support Activity ([3]; 1-hexene 7.5 g, 80° C., 320 psig, 30 min, isobutane, TIBA) | Support Activity ([3]; 1-hexene 12 g, 80° C., 320 psig, 30 min, isobutane, TIBA) | Support Activity ([3]; 1-hexene 17.5 g, 80° C., 320 psig, 30 min, isobutane, TIBA) | Support Activity ([3]; 1-hexene 30 g, 80° C., 320 psig, 30 min, isobutane, TIBA) | Support Activity ([3]; Table IV, 1-hexene 49 g, 90° C., 390 psig ethylene, 1-hexene feed ratio 20 wt. %) | Support Activity ([3]; Table IV, 1-hexene 51 g, 90° C., 390 psig ethylene, 1-hexene feed ratio 20 wt. %)
1 | Fc1c(F)c(F)c(C[c-]2ccc3ccccc32)c(F)c1F.[Cl-].[Cl-].[Zr+4].c1cc[cH-]c1 (stereo not drawn) [MET-A] | 75,060 g/(g*h) | <0.1 wt. % | 1,920 g/(g*h) | 1,776 g/(g*h) | 1,872 g/(g*h) | 2,144 g/(g*h) | 2937 g/g/h | 
2 | CCCC[c-]1cccc1.Fc1c(F)c(F)c(C[c-]2ccc3ccccc32)c(F)c1F.[Cl-].[Cl-].[Zr+4] (stereo not drawn) [MET-G] |  | 0.4 wt. % |  |  |  |  |  | 1392 g/g/h
